# Reference: patent US8013006B2
# Legend:
# HCV replicon = assay: microbe, parasite or virus in culture; format: cell-based; details: Hepatitis C virus, 48 h, read-out: Replicon IC5Os
Compound,IC50 (HCV replicon),melting point
CCCS(=O)(=O)Nc1cccc(-c2c(C#N)c3ccc(C(F)(F)F)cc3n2CC)c1 [Compound 563],500 to 2000 nM,210 to 212 °C
CCn1c(-c2ccc(NC(=O)C3CCC3)cc2)c(C#N)c2ccccc21 [Compound 567],500 to 2000 nM,238.2 to 238.6 °C
CCn1c(-c2ccc(C(=O)NC(C)C)cc2)c(C#N)c2cc(OC)ccc21 [Compound 570],500 to 2000 nM,220 to 222 °C
CCS(=O)(=O)Nc1ccc(-c2c(C#N)c3cc(OC)ccc3n2C)cc1 [Compound 580],< 500 nM,198 to 200 °C
CCCS(=O)(=O)Nc1ccc(-c2c(C#N)c3cc(Cl)ccc3n2CC)cc1 [Compound 601],< 500 nM,195 to 200 °C
CCn1c(-c2ccc(NS(=O)(=O)C3CC3)cc2)c(C#N)c2cc(Cl)ccc21 [Compound 602],< 500 nM,179 to 184 °C
CCCOC(=O)Nc1cccc(-c2c(C#N)c3cc(N4CCOCC4)ccc3n2CC)c1 [Compound 606],< 500 nM,166 to 170 °C
CCn1c(-c2cccc(NC(=O)OCCOC)c2)c(C#N)c2cc(N3CCOCC3)ccc21 [Compound 607],< 500 nM,189 to 194 °C
COc1ccc2c(C#N)c(-c3ccc(NS(C)(=O)=O)cc3)n(CC3CC3)c2c1 [Compound 611],500 to 2000 nM,126 to 128 °C
CCS(=O)(=O)Nc1ccc(-c2c(C#N)c3ccc(OC)cc3n2CC2CC2)cc1 [Compound 612],500 to 2000 nM,198 to 200 °C
CS(=O)(=O)Nc1ccc(-c2c(C#N)c3ccc(OC(F)F)cc3n2CC2CC2)cc1 [Compound 613],< 500 nM,198 to 200 °C
CCS(=O)(=O)Nc1ccc(-c2c(C#N)c3ccc(OC(F)F)cc3n2CC2CC2)cc1 [Compound 614],< 500 nM,176 to 177 °C
CCCCS(=O)(=O)Nc1ccc(-c2c(C#N)c3cc(Cl)ccc3n2CC)cc1 [Compound 616],< 500 nM,143 to 149 °C
CCn1c(-c2ccc(NS(=O)(=O)CCCCl)cc2)c(C#N)c2cc(Cl)ccc21 [Compound 617],< 500 nM,164 to 167 °C
CCOC(=O)Nc1ccc(-c2c(C#N)c3cc(Cl)ccc3n2CC)cc1 [Compound 618],< 500 nM,205 to 211 °C
CCCOC(=O)Nc1ccc(-c2c(C#N)c3cc(Cl)ccc3n2CC)cc1 [Compound 619],500 to 2000 nM,201 to 206 °C
CCCn1c(-c2ccc(NS(=O)(=O)CCC)cc2)c(C#N)c2ccc(OC)cc21 [Compound 621],500 to 2000 nM,187 to 188 °C
CCCn1c(-c2ccc(NS(=O)(=O)C(C)C)cc2)c(C#N)c2ccc(OC)cc21 [Compound 622],500 to 2000 nM,182 to 183 °C
CCCn1c(-c2ccc(NS(=O)(=O)Cc3ccccc3)cc2)c(C#N)c2ccc(OC)cc21 [Compound 623],500 to 2000 nM,217 to 218 °C
CCCn1c(-c2ccc(NC(=O)NCC)cc2)c(C#N)c2ccc(OC)cc21 [Compound 626],500 to 2000 nM,193 to 194 °C
CCCNC(=O)Nc1ccc(-c2c(C#N)c3cc(Cl)ccc3n2CC)cc1 [Compound 628],500 to 2000 nM,221 to 226 °C

Compound,IC50 (HCV replicon),melting point
CCS(=O)(=O)Nc1ccc(-c2c(C#N)c3cc(Cl)ccc3n2CCC(C)C)cc1 [Compound 631],500 to 2000 nM,177 to 182 °C
C=Cn1c(-c2ccc(NS(=O)(=O)CC)cc2)c(C#N)c2ccc(OC)cc21 [Compound 633],500 to 2000 nM,159 to 161 °C
C=Cn1c(-c2ccc(NS(=O)(=O)C3CC3)cc2)c(C#N)c2ccc(OC)cc21 [Compound 635],< 500 nM,200 to 201 °C
CCCn1c(-c2ccc(NC(=O)OC(C)C)cc2)c(C#N)c2ccc(OC)cc21 [Compound 641],500 to 2000 nM,177 to 178 °C
CCn1c(-c2ccc(CNS(C)(=O)=O)cc2)c(C#N)c2ccc(OC)cc21 [Compound 650],500 to 2000 nM,165 to 166 °C
CCn1c(-c2ccc(N(C)S(=O)(=O)CCl)cc2)c(C#N)c2ccc(OC)cc21 [Compound 652],< 500 nM,191 to 194 °C
CCCOc1ccc2c(C#N)c(-c3ccc(N4CCCS4(=O)=O)cc3)n(CC)c2c1 [Compound 667],< 500 nM,242 to 244 °C
CCn1c(-c2ccc(NS(=O)(=O)CC)cc2)c(C#N)c2ccc(OCc3cccnc3)cc21 [Compound 669],< 500 nM,213 to 215 °C
CCn1c(-c2ccc(NS(=O)(=O)C3CC3)cc2)c(C#N)c2ccc(OCc3cccnc3)cc21 [Compound 670],< 500 nM,231 to 233 °C
CCn1c(-c2ccc(NS(=O)(=O)CC)cc2)c(C#N)c2ccc(OCc3ccccn3)cc21 [Compound 671],< 500 nM,221 to 222 °C
CCOC(=O)Nc1ccc(-c2c(C#N)c3ccc(OC)cc3n2CCOC)cc1 [Compound 676],500 to 2000 nM,174 to 175 °C
CCCOC(=O)Nc1ccc(-c2c(C#N)c3ccc(OC)cc3n2CCOC)cc1 [Compound 677],500 to 2000 nM,133 to 134 °C
CCNC(=O)N1CCc2cc(-c3c(C#N)c4ccc(OC)cc4n3CC)ccc21 [Compound 679],500 to 2000 nM,212 to 220 °C
CCCNC(=O)N1CCc2cc(-c3c(C#N)c4ccc(OC)cc4n3CC)ccc21 [Compound 680],< 500 nM,163 to 168 °C
CCn1c(-c2ccc3c(c2)CCN3C(=O)NC(C)C)c(C#N)c2ccc(OC)cc21 [Compound 681],500 to 2000 nM,192 to 197 °C
CCOc1ccc2c(C#N)c(-c3ccc(N(C)S(C)(=O)=O)cc3)n(C3CCC3)c2c1 [Compound 690],500 to 2000 nM,192 to 193 °C
CCOc1ccc2c(C#N)c(-c3ccc(N(C)S(=O)(=O)CC)cc3)n(C)c2c1 [Compound 692],500 to 2000 nM,175 to 176 °C
CCOc1ccc2c(C#N)c(-c3ccc(N(C)S(=O)(=O)CC)cc3)n(CC)c2c1 [Compound 693],< 500 nM,163 to 164 °C
CCn1c(-c2ccc(N3CCCS3(=O)=O)cc2)c(C#N)c2ccc(OCCF)cc21 [Compound 699],< 500 nM,255 to 258 °C
CCn1c(-c2ccc3c(c2)CCN3S(C)(=O)=O)c(C#N)c2ccc(OC)cc21 [Compound 701],500 to 2000 nM,188 to 194 °C
CCn1c(-c2ccc3c(c2)CCN3S(=O)(=O)CC)c(C#N)c2ccc(OC)cc21 [Compound 702],500 to 2000 nM,147 to 150 °C

Compound,IC50 (HCV replicon),melting point
CCCCn1c(-c2ccc(NS(=O)(=O)CC)cc2)c(C#N)c2ccc(OC)cc21 [Compound 707],500 to 2000 nM,159 to 161 °C
CCCCn1c(-c2ccc(NS(=O)(=O)C3CC3)cc2)c(C#N)c2ccc(OC)cc21 [Compound 709],< 500 nM,166 to 168 °C
CCCn1c(-c2ccc(NS(=O)(=O)CC)cc2)c(C#N)c2cc(OCc3ccccc3)ccc21 [Compound 713],500 to 2000 nM,199 to 202 °C
COc1ccc2c(C#N)c(-c3ccc(N4CCCS4(=O)=O)cc3)n(CC(C)C)c2c1 [Compound 717],500 to 2000 nM,205 to 207 °C
COc1ccc2c(C#N)c(-c3cccc(NS(C)(=O)=O)c3)n(C3CCCC3)c2c1 [Compound 720],500 to 2000 nM,172 to 178 °C
COc1ccc2c(C#N)c(-c3cccc(NC(=O)OC(C)C)c3)n(C3CCCC3)c2c1 [Compound 723],500 to 2000 nM,175 to 180 °C
CCn1c(-c2ccc(N3CCN(Cc4ccccc4)S3(=O)=O)cc2)c(C#N)c2ccc(OC)cc21 [Compound 727],500 to 2000 nM,217 to 218 °C
CCn1c(-c2ccc(N3CCCC3=O)cc2)c(C#N)c2ccc(OC(C)C)cc21 [Compound 731],< 500 nM,173 to 174 °C
COc1ccc2c(C#N)c(-c3ccc(N4CCCC4=O)cc3)n(CCF)c2c1 [Compound 732],500 to 2000 nM,219 to 221 °C
COC(=O)Nc1ccc(-c2c(C#N)c3ccc(OC(F)F)cc3n2CC2CC2)cc1 [Compound 734],500 to 2000 nM,167 to 169 °C
CCOC(=O)Nc1ccc(-c2c(C#N)c3ccc(OC(F)F)cc3n2CC2CC2)cc1 [Compound 735],< 500 nM,123 to 125 °C
CC(C)OC(=O)Nc1ccc(-c2c(C#N)c3ccc(OC(F)F)cc3n2CC2CC2)cc1 [Compound 737],500 to 2000 nM,153 to 155 °C
N#Cc1c(-c2ccc(NC(=O)OCCF)cc2)n(CC2CC2)c2cc(OC(F)F)ccc12 [Compound 738],< 500 nM,149 to 151 °C
CCCNC(=O)Nc1ccc(-c2c(C#N)c3ccc(OC(F)F)cc3n2CC2CC2)cc1 [Compound 741],< 500 nM,194 to 196 °C
CCCCNC(=O)Nc1ccc(-c2c(C#N)c3ccc(OC(F)F)cc3n2CC2CC2)cc1 [Compound 742],500 to 2000 nM,171 to 173 °C
N#Cc1c(-c2ccc(NC(=O)NC3CCCC3)cc2)n(CC2CC2)c2cc(OC(F)F)ccc12 [Compound 743],< 500 nM,129 °C
COC(=O)Nc1cccc(-c2c(C#N)c3ccc(OC(F)F)cc3n2CC2CC2)c1 [Compound 744],< 500 nM,92 to 93 °C
CCCCn1c(-c2ccc(NC(=O)OCCF)cc2)c(C#N)c2ccc(OC)cc21 [Compound 747],< 500 nM,136 to 137 °C
CCCCn1c(-c2ccc(NC(=O)NCC)cc2)c(C#N)c2ccc(OC)cc21 [Compound 748],< 500 nM,186 to 188 °C
CCCCn1c(-c2ccc(NC(=O)NCCC)cc2)c(C#N)c2ccc(OC)cc21 [Compound 749],< 500 nM,176 to 178 °C
